Like-named read-outs stand apart in the source and are kept apart here.
System: NCI 60 cancer cell lines
Experiment: NCI anticancer screening over a panel of 60 cancer cells, single concentration 10 µM
Format: cell-based, human
Conditions: Homo sapiens, read-out: Growth inhibition (GI %)
Method: Ten final compounds 4a–j and five intermediates 2a–e have been selected by the National Cancer Institute (NCI) for anticancer screening over a panel of 60 cancer cells that cover a variety of histological tissues, including the central nervous system, leukemia, lung, colon, kidney, ovary, breast, and prostate, using the protocol established by the National Cancer Institute (NCI). In a primary screening, each compound was screened at a concentration of 10 µM.
Compounds 2a-e and 4a-j were selected by the National Cancer Institute (NCI) according to the protocol of the Compound Evaluation Branch of the National Cancer Institute, Bethesda, USA, for in vitro anticancer screening which refers in turn to apoptotic activity. The methodology of the NCI anticancer screening has been described in detail elsewhere (http://www.dtp.nci.nih.gov).

[1] = 786-0, Renal cancer 786-0, 10 μM
[2] = A549, Non-small cell lung cancer A549/ATCC, 10 μM
[3] = BT-549, Breast cancer BT-549, 10 μM
[4] = CAKI-1, Renal cancer CAKI-1, 10 μM
[5] = CCRF-CEM, Leukemia CCRF-CEM, 10 μM
[6] = COLO 205, Colon cancer COLO 205, 10 μM
[7] = DU-145, Prostate cancer DU-145, 10 μM
[8] = EKVX, Non-small cell lung cancer EKVX, 10 μM
[9] = HCC 2998, Colon cancer HCC-2998, 10 μM
[10] = HCT-15, Colon cancer HCT-15, 10 μM
[11] = HCT-116, Colon cancer HCT-116, 10 μM
[12] = HL-60, Leukemia HL-60(TB), 10 μM
[13] = HOP-62, Non-small cell lung cancer HOP-62, 10 μM
[14] = HOP-92, Non-small cell lung cancer HOP-92, 10 μM
[15] = HT-29, Colon cancer HT29, 10 μM
[16] = Hs-578T, Breast cancer HS 578T, 10 μM
[17] = IGROV-1, Ovarian cancer IGROV1, 10 μM
[18] = LOX IMVI, Melanoma LOX IMVI, 10 μM
[19] = MDA-MB-231, Breast Cancer MDA-MB 231/ATCC, 10 μM
[20] = MDA-MB-435, Melanoma MDA-MB-435, 10 μM
[21] = MDA-MB-468, Breast cancer MDA-MB-468, 10 μM
[22] = Malme-3M, Melanoma MALME-3M, 10 μM
[23] = NCI-H23, Non-small cell lung cancer NCI-H23, 10 μM
[24] = NCI-H226, Non-small cell lung cancer NCI-H226, 10 μM
[25] = NCI-H322M, Non-small cell lung cancer NCI-H322M, 10 μM
[26] = NCI-H460, Non-small cell lung cancer NCI-H460, 10 μM
[27] = NCI-H522, Non-small cell lung cancer NCI-H522, 10 μM
[28] = NCI/ADR-RES, Ovarian cancer NCI/ADR-RES, 10 μM
[29] = OVCAR-3, Ovarian cancer OVCAR-3, 10 μM
[30] = OVCAR-4, Ovarian cancer OVCAR-4, 10 μM
[31] = OVCAR-5, Ovarian cancer OVCAR-5, 10 μM
[32] = OVCAR-8, Ovarian cancer OVCAR-8, 10 μM
[33] = RPMI-8226, Leukemia RPMI-8226, 10 μM
[34] = RXF 393, Renal cancer RXF 393, 10 μM
[35] = SF-268, CNS Cancer SF-268, 10 μM
[36] = SF-295, CNS Cancer SF-295, 10 μM
[37] = SF-539, CNS Cancer SF-539, 10 μM
[38] = SK-MEL-2, Melanoma SK-MEL-2, 10 μM
[39] = SK-MEL-5, Melanoma SK-MEL-5, 10 μM
[40] = SK-MEL-28, Melanoma SK-MEL-28, 10 μM
[41] = SK-OV-3, Ovarian cancer SK-OV-3, 10 μM
[42] = SN12C, Renal cancer SN12C, 10 μM
[43] = SNB-19, CNS Cancer SNB-19, 10 μM
[44] = SNB-75, CNS Cancer SNB-75, 10 μM
[45] = SW-620, Colon cancer SW-620, 10 μM
[46] = T47D, Breast cancer T-47D, 10 μM
[47] = TK-10, Renal cancer TK-10, 10 μM
[48] = UACC-62, Melanoma UACC-62, 10 μM
[49] = UACC-257, Melanoma UACC-257, 10 μM
[50] = UO-31, Renal cancer UO-31, 10 μM

CC(=O)c1cnn(-c2cc(=O)[nH]c3ccc(C)cc23)c1C [Compound 2b, 4-(4-Acetyl-5-methyl-1H-pyrazol-1-yl)-6-methylquinolin-2(1H)-one] showed an inhibition at 10 µM [1] of under 5%, an inhibition at 10 µM (A498, Renal cancer A498, 10 μM) of under 5% and an inhibition at 10 µM [2] of under 5%. It also gave an inhibition at 10 µM (ACHN, Renal cancer ACHN, 10 μM) of under 5%, an inhibition at 10 µM [3] of under 5% and an inhibition at 10 µM [4] of 8.89%. The inhibition at 10 µM [5] was under 5%, the inhibition at 10 µM [6] was under 5% and the inhibition at 10 µM [7] was under 5%. For the same compound, the inhibition at 10 µM [8] was under 5%, the inhibition at 10 µM [9] was under 5% and the inhibition at 10 µM [10] was under 5%. For the same compound, the inhibition at 10 µM [11] was under 5%, the inhibition at 10 µM [12] was 19% and the inhibition at 10 µM [13] was 6.93%. For the same compound, the inhibition at 10 µM [14] was under 5%, the inhibition at 10 µM [15] was under 5% and the inhibition at 10 µM [16] was under 5%. The inhibition at 10 µM [17] was under 5%, the inhibition at 10 µM (K562, Leukemia K-562, 10 μM) was under 5% and the inhibition at 10 µM (KM12, Colon cancer KM12, 10 μM) was under 5%. For the same compound, the inhibition at 10 µM [18] was 5.38%, the inhibition at 10 µM (Leukemia SR, 10 μM) was under 5% and the inhibition at 10 µM [19] was under 5%. For the same compound, the inhibition at 10 µM [20] was under 5%, the inhibition at 10 µM [21] was under 5% and the inhibition at 10 µM (MOLT-4, Leukemia MOLT-4, 10 μM) was under 5%. It also gave an inhibition at 10 µM [22] of under 5%, an inhibition at 10 µM (Melanoma M14, 10 μM) of under 5% and an inhibition at 10 µM [23] of under 5%. For the same compound, the inhibition at 10 µM [24] was under 5%, the inhibition at 10 µM [25] was under 5% and the inhibition at 10 µM [26] was under 5%. The inhibition at 10 µM [27] was 6.79%, the inhibition at 10 µM [28] was under 5% and the inhibition at 10 µM [29] was under 5%. The inhibition at 10 µM [30] was under 5%, the inhibition at 10 µM [31] was under 5% and the inhibition at 10 µM [32] was under 5%. For the same compound, the inhibition at 10 µM (Prostate cancer PC-3, 10 μM) was 4.29%, the inhibition at 10 µM [33] was under 5% and the inhibition at 10 µM [34] was under 5%. It also gave an inhibition at 10 µM [35] of under 5%, an inhibition at 10 µM [36] of under 5% and an inhibition at 10 µM [37] of under 5%. For the same compound, the inhibition at 10 µM [38] was under 5%, the inhibition at 10 µM [39] was under 5% and the inhibition at 10 µM [40] was under 5%. It also gave an inhibition at 10 µM [41] of under 5%, an inhibition at 10 µM [42] of under 5% and an inhibition at 10 µM [43] of under 5%. For the same compound, the inhibition at 10 µM [44] was under 5%, the inhibition at 10 µM [45] was under 5% and the inhibition at 10 µM [46] was 6.75%. It also gave an inhibition at 10 µM [47] of under 5%, an inhibition at 10 µM (U-251, CNS Cancer U251, 10 μM) of 5.31% and an inhibition at 10 µM [48] of under 5%. It also gave an inhibition at 10 µM [49] of under 5% and an inhibition at 10 µM [50] of 19%.
For CC(=O)c1cnn(-c2cc(=O)[nH]c3ccccc23)c1C [Compound 2a, 4-(4-Acetyl-5-methyl-1H-pyrazol-1-yl)quinolin-2(1H)-one], the inhibition at 10 µM [1] was under 5%, the inhibition at 10 µM (A498, Renal cancer A498, 10 μM) was under 5% and the inhibition at 10 µM [2] was 5.98%. The inhibition at 10 µM (ACHN, Renal cancer ACHN, 10 μM) was 7.82%, the inhibition at 10 µM [3] was 6.06% and the inhibition at 10 µM [4] was 21.5%. It also gave an inhibition at 10 µM [5] of 11.3%, an inhibition at 10 µM [6] of under 5% and an inhibition at 10 µM [7] of under 5%. The inhibition at 10 µM [8] was 54.4%, the inhibition at 10 µM [9] was under 5% and the inhibition at 10 µM [10] was under 5%. It also gave an inhibition at 10 µM [11] of under 5%, an inhibition at 10 µM [12] of 6.26% and an inhibition at 10 µM [13] of 22.9%. The inhibition at 10 µM [14] was 25.1%, the inhibition at 10 µM [15] was under 5% and the inhibition at 10 µM [16] was 8.26%. For the same compound, the inhibition at 10 µM [17] was 37.9%, the inhibition at 10 µM (K562, Leukemia K-562, 10 μM) was 9.72% and the inhibition at 10 µM (KM12, Colon cancer KM12, 10 μM) was under 5%. It also gave an inhibition at 10 µM [18] of 15.6%, an inhibition at 10 µM (Leukemia SR, 10 μM) of 5.8% and an inhibition at 10 µM (MCF7, Breast cancer MCF7, 10 μM) of 17.3%. For the same compound, the inhibition at 10 µM [19] was 26.9%, the inhibition at 10 µM [20] was under 5% and the inhibition at 10 µM [21] was under 5%. It also gave an inhibition at 10 µM (MOLT-4, Leukemia MOLT-4, 10 μM) of 7.63%, an inhibition at 10 µM [22] of 11.3% and an inhibition at 10 µM (Melanoma M14, 10 μM) of under 5%. The inhibition at 10 µM [23] was 10.3%, the inhibition at 10 µM [24] was 32.4% and the inhibition at 10 µM [25] was 16.1%. The inhibition at 10 µM [26] was under 5%, the inhibition at 10 µM [27] was 10.3% and the inhibition at 10 µM [28] was 8.35%. The inhibition at 10 µM [29] was under 5%, the inhibition at 10 µM [30] was under 5% and the inhibition at 10 µM [31] was under 5%. It also gave an inhibition at 10 µM [32] of under 5%, an inhibition at 10 µM (Prostate cancer PC-3, 10 μM) of 15.2% and an inhibition at 10 µM [33] of 26.6%. For the same compound, the inhibition at 10 µM [34] was under 5%, the inhibition at 10 µM [35] was under 5% and the inhibition at 10 µM [36] was 6.24%. The inhibition at 10 µM [37] was 13%, the inhibition at 10 µM [38] was under 5% and the inhibition at 10 µM [39] was 11.9%. For the same compound, the inhibition at 10 µM [40] was under 5%, the inhibition at 10 µM [41] was 20% and the inhibition at 10 µM [42] was 8.07%. The inhibition at 10 µM [43] was 11.4%, the inhibition at 10 µM [44] was under 5% and the inhibition at 10 µM [45] was under 5%. For the same compound, the inhibition at 10 µM [46] was 16.9%, the inhibition at 10 µM [47] was under 5% and the inhibition at 10 µM (U-251, CNS Cancer U251, 10 μM) was 8.86%. For the same compound, the inhibition at 10 µM [48] was 19.5%, the inhibition at 10 µM [49] was under 5% and the inhibition at 10 µM [50] was 38.3%.

Source: PMC12638379, “An innovative approach to development of new pyrazolylquinolin-2-one hybrids as dual EGFR and BRAF^V600E inhibitors” (Molecular Diversity, 2025)
